Experimental data reported in patent US20240002351A1, “QUINAZOLIN-4-ONE AND THIENO[2,3-D]PYRIMIDIN-4-ONE INHIBITORS OF ERBB4 (HER4) FOR USE IN THE TREATMENT OF CANCER” (UNIVERSITEIT ANTWERPEN, priority 2021, published 2024).

How the values were obtained:
ERBB4 [1] = biological target: T1, ERBB4 (Homo sapiens, UniProt Q15303); assay: PathHunter ERBB4/ERBB4 dimerization assay, dose-response curves; type: cell-based; details: U2OS ERBB4/ERBB4 dimerization cell line, 6 hours, compound alone; for Emax: NRG-1 = 100
T1 construct: host or cells: U2OS
T1 sequence (Q15303 26-1308): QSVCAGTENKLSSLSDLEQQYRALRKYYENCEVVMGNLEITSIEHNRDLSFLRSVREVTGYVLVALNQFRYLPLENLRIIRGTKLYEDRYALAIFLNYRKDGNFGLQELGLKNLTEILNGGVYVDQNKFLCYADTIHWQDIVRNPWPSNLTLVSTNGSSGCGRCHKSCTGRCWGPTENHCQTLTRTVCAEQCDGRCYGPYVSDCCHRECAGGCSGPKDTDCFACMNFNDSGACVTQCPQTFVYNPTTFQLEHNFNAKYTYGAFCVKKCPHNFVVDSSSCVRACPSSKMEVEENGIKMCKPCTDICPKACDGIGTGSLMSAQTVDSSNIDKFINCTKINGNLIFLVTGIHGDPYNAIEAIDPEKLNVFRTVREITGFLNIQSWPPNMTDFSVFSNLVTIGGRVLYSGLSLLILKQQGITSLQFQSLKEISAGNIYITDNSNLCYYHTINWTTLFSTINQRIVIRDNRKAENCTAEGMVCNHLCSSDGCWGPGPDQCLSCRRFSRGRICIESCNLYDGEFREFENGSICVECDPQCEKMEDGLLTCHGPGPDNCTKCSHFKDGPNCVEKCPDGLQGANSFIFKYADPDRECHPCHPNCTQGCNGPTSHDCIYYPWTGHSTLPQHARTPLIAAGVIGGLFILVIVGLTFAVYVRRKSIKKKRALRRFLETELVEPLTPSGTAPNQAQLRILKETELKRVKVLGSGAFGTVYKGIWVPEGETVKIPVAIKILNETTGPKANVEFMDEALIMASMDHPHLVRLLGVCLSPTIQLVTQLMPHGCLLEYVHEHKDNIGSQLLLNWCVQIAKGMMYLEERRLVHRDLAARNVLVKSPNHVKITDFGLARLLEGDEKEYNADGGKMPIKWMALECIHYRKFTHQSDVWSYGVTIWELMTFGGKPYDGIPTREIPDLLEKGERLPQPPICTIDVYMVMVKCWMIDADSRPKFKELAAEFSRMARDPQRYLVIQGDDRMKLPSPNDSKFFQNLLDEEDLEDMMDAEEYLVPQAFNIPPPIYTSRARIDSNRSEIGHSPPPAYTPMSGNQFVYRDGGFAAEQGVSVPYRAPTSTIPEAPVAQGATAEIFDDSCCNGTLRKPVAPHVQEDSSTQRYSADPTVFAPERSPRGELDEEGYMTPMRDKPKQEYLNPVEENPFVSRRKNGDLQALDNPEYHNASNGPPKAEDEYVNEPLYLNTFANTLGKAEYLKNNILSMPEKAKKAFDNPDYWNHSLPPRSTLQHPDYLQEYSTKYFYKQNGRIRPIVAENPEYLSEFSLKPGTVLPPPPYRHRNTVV
Experimental: (§1) Following 1-12 passages, U2OS ERBB4/ERBB4 dimerization cell line (Eurofins, 93-0961C3) were seeded at 10,000 cells/well in 100 μL cell plating reagent (Eurofins, 93-0563R0A) in white walled 96-well plates (PerkinElmer, 6005680) and incubated for 24h at 37° C. in humidified atmosphere of 5% CO2 in air. Cells were treated with 10 μL of compound (prepared at 11×, Enamine), 10 μM Heregulin-β1 (NRG-1) (DiscoverX, 92-1031 or Peprotech, 100-03) or PBS. […] Cells were subsequently incubated for 6 hours at 37° C., 5% CO2. Then 110 μL PathHunter Flash Detection Reagents (93-0247) were added to each well and cells were incubated at room temperature for 1 hour (covered from light). Afterwards luminescence signal was measured using the Luminoskan Ascent (Thermofisher). Dose response curves of the compounds were performed in 2-fold (0,0625 μM-32 μM).
From these curves, the EC50 and the Emax of the compounds was calculated.

ERBB4 [2] = biological target: T1, ERBB4; assay: PathHunter ERBB4/ERBB4 dimerization assay, compounds on top of 0.1 μM NRG-1 (identification of modulators); type: cell-based; details: for EC50: on top of 0.1 μM NRG1; for Emax: on top of 0.1 μM NRG1, relative to NRG1 (set as 100%); for behaviour from the shape of the dose-response curves: on top of 0.1 μM neuregulin-1 (FIG. 1)
Experimental: as §1
Cells were treated with compound (prepared at 22×, 10 min pre-incubation) together with NRG-1 (0.1 μM final concentration, Peprotech, 100-03), or NRG-1 (0.1 μM final concentration) or PBS.
The EC50 and the Emax of the compounds on top of 0.1 μM NRG1 is depicted in Table 3 relative to NRG1 (set as 100%).

[3] = Solubility in PBS (absorbance); type: physicochemical; details: aqueous buffer, kinetic from dmso stock, 37° C., 2 hours (FIG. 10), read-out: solubility: concentration at which easily soluble
Experimental: A dilution series (0.16, 0.31, 0.62, 1.25, 2.5 and 5 mM) was made starting with a compound stock solution of 10 mM in DMSO. Aliquot of 4 μL was taken out of every dilution and added to 196 μL PBS in a 96-well plate. The plate was shaken for 10 seconds, incubated at 37° C. for 2 hours and thereafter absorbance was measured. Samples were analyzed in duplicate.

Chemical stability = type: physicochemical; details: 37° C. and pH 7.4 for 24 hours (FIG. 11)
Experimental: A 10 μL aliquot of compound solution (10 mM in DMSO) was added to 990 μL DMSO (100 μM) and further diluted with […] to a stock solution of 500 nM. The mixture was incubated at 37° C. Aliquots of 100 μL were taken at various time points (0, 0.5, 1, 2, 3, 6 and 24 hrs) and analyzed with LC-MS/MS (Waters Acquity H-class UPLC system with ion trap mass spectrometer, Bruker Daltonics Esquire 3000 plus, and Agilent 1100 Series LC system). Samples were analyzed in triplicate and plotted against a standard curve; compound at 31-500 nM in buffer solution of pH 7.4 (10 mM Potassium Phosphate, BD Gentest).

[4] = Plasma stability, human plasma; type: in vitro ADME; details: 50 μM, 37° C., over 6 hours (FIG. 12)
Experimental: (§2) A 5 μL aliquot of compound solution (10 mM in DMSO) was added to 995 μL of Non Swiss Albino Mouse Plasma (DivBioScience, Breda, Netherlands) or Pooled Normal Human plasma in sodium citrate to obtain a final concentration of 50 μM compound in plasma. The mixture was gently shaken for 6 hours at 37° C. Aliquots of 100 μL were taken at various time points (0, 0.5, 1, 2 and 6 hrs.) and diluted with 400 μL of cold acetonitrile (Sigma-Aldrich, stored at 4° C.). The suspension was centrifuged at 14000 rpm for 5 min. Thereafter, 50 μL of the supernatant was diluted with 950 μL of acetonitrile and analyzed with LC-MS/MS (Waters Acquity H-class UPLC system with ion trap mass spectrometer, Bruker Daltonics Esquire 3000 plus, and Agilent 1100 Series LC system). Samples were analyzed in triplicate and plotted against a standard curve (compound at 3.12-100 μM in plasma and diluted in acetonitrile as described above).

[5] = Plasma stability, mouse plasma; type: in vitro ADME; details: 50 μM, 37° C., over 6 hours (FIG. 12)
Experimental: as §2

[6] = Metabolic stability, mouse liver microsomes; type: in vitro ADME; details: for t1/2 mouse: mouse liver microsomes; for half-life at 10 µM: mouse, liver microsomes, pH 7.4, mouse liver microsomes, read-out: t1/2 mouse
Experimental: A mixture of 713 μL milliQ water (Millipore, MA, USA), 200 μL 0.5 M phosphate buffer (pH 7.4, BD Diagnostic Systems, MD, USA), 50 μL NADPH regenerating system solution A (BD Biosciences, CA, USA), 10 μL NADPH regenerating system solution B (BD Biosciences, CA, USA) and 2 μL compound (5 mM in DMSO) was prepared and heated for 5 min at 37° C. Twenty-five μL of liver microsomes (0.5 mg protein/mL, Corning B.V. Life Sciences, Amsterdam, Netherlands) was added to the mixture and 20 μL samples were withdrawn at 0, 0.25, 0.5 and 1, 2, 4, 6 and 24 hours. Eighty μL (4×20 μL) of cold acetonitrile (Sigma-Aldrich, MO, USA) was added to the samples on ice for 10 min. Afterwards, the mixtures were centrifuged at 13,000 rpm for 5 min at 4° C. Seventy-five μL of an acetonitrile/water (10/90) mixture was added to 25 μL supernatant and the obtained samples were analyzed by LC-MS/MS (Waters Acquity H-class UPLC system with ion trap mass spectrometer, Bruker Daltonics Esquire 3000 plus, and Agilent 1100 Series LC system) in triplicate.

O=C(NC1CC1)C(Sc1nc2ccccc2c(=O)n1C1CCCC1)c1ccccc1 (centres unmarked) [Compound 1]
EC50 (ERBB4 [1]): 8.92 µM
Emax (ERBB4 [1]): 33.1 ± 4.21%
EC50 (ERBB4 [2]): ~1.6 µM
Emax (ERBB4 [2]): 256 ± 126%
behaviour from the shape of the dose-response curves (ERBB4 [2]): ago-allosteric modulators
solubility at 2 h [3]: < 25 µM
chemical stability (Chemical stability): chemically stable
plasma stability, human plasma [4]: stable
plasma stability, mouse plasma [5]: stable
t1/2 mouse [6]: 15 min
half-life at 10 µM [6]: 14 to 15 min

Cc1sc2nc(SC(C)C(=O)Nc3sccc3C(N)=O)n(CC(C)C)c(=O)c2c1C (centres unmarked) [Compound 6]
EC50 (ERBB4 [1]): 6.47 µM
Emax (ERBB4 [1]): 10.3 ± 3.01%
EC50 (ERBB4 [2]): ~13.9 µM
Emax (ERBB4 [2]): 112 ± 14%
behaviour from the shape of the dose-response curves (ERBB4 [2]): weak or silent allosteric modulators
solubility at 2 h [3]: < 25 µM
chemical stability (Chemical stability): chemically stable
plasma stability, human plasma [4]: stable
plasma stability, mouse plasma [5]: stable
t1/2 mouse [6]: 8 min
half-life at 10 µM [6]: 8 to 12 min

CC(Sc1nc2ccccc2c(=O)n1C1CCCC1)c1nc2ccccc2n1C(F)F (centres unmarked) [Compound 7]
EC50 (ERBB4 [1]): 10.4 µM
Emax (ERBB4 [1]): 9.76 ± 2.46%
Emax (ERBB4 [2]): 139 ± 19%
behaviour from the shape of the dose-response curves (ERBB4 [2]): weak or silent allosteric modulators
solubility at 2 h [3]: < 25 µM
chemical stability (Chemical stability): chemically stable
plasma stability, human plasma [4]: stable
plasma stability, mouse plasma [5]: stable
t1/2 mouse [6]: 14 min
half-life at 10 µM [6]: 14 to 15 min
